Measurements published in patent US20080145372A1, “Bioreductively-Activated Prodrugs” (ANGIOGENE, PHARMACEUTICALS LIMITED, priority 2004, published 2008).

Experiment: Pulse radiolysis: fragmentation of radical anions
Conditions: prodrug 40 μM, N2O-saturated 50% aqueous 2-propanol, pH 7.4-9.0
Method: The rate of fragmentation of intermediate radical anions produced by one-electron reduction is an important determinant of bioreductive prodrug action and can be measured by pulse radiolysis. The magnitude of the rate constant of radical fragmentation indicates the ability of the prodrugs to deliver the drug under hypoxia. The radicals were generated by reduction of the parent prodrugs (40 μM) by the 2-propanol radical generated radiolytically in an N2O-saturated 50% aqueous 2-propanol buffered to pH 7.4-9.0 with potassium phosphate (4 mM). Experiments were performed with a 6 Me V linear accelerator to generate an electron pulse of around 500 ns.

SMILES	First-order rate constant k for the decay of radical anions produced by pulse radiolysis
CC(=O)O[C@@H]1[C@H](OC(C)=O)[C@@H](C)O[C@H]1n1cc(F)c(NC(=O)OCc2ccc([N+](=O)O)s2)nc1=O [Example 9, 5′-Deoxy-2′,3′-di-O-acetyl-5-fluoro-N^4-((5-nitrothien-2-yl)methoxycarbonyl)cytidine]	22 s⁻¹
O=C(Nc1ncnc2c1ncn2[C@@H]1O[C@H](CO)[C@@H](O)[C@@H]1O)OCc1ccc([N+](=O)[O-])s1 [Example 8, N^6-(5-nitrothien-2-yl)methoxycarbonyl-9-β-D-arabinofuranosyladenine]	148 s⁻¹
Cn1c(COC(=O)Nc2ccn([C@@H]3O[C@H](CO)[C@@H](O)C3(F)F)c(=O)n2)cnc1[N+](=O)[O-] [Example 5, N^4-(2-nitro-1-methylimidazol-5-yl)methoxycarbonyl-2′,2′-difluoro-2′-deoxycytidine]	18 s⁻¹
CC(OC(=O)Nc1ccn([C@@H]2O[C@H](CO)[C@@H](O)[C@@H]2O)c(=O)n1)c1ccc([N+](=O)[O-])cc1 (stereo partly drawn) [Example 11, N^4-(1-(4-nitrophenyl)ethoxycarbonyl)-1-β-D-arabinofuranosylcytosine]	0.4 s⁻¹
O=C(Nc1nc(F)nc2c1ncn2[C@@H]1O[C@H](CO)[C@@H](O)[C@@H]1O)OCc1ccc([N+](=O)[O-])s1 [Example 10, 2-fluoro-N^6-(5-nitrothien-2-yl)methoxycarbonyl-9-O-D-arabinofuranosyladenine]	144 s⁻¹
O=C(Nc1ccn([C@@H]2O[C@H](CO)[C@@H](O)[C@@H]2O)c(=O)n1)OCc1ccc([N+](=O)[O-])o1 [Example 12, N^4-(5-nitrofuran-2-yl)methoxycarbonyl-1-β-D-arabinofuranosylcytosine]	5.5 s⁻¹
CC(OC(=O)Nc1ccn([C@@H]2O[C@H](CO)[C@@H](O)[C@@H]2O)c(=O)n1)c1ccc([N+](=O)[O-])s1 (stereo partly drawn) [Example 1, N^4-(1-(5-nitrothien-2-yl)ethyl)oxycarbonyl-1-β-D-arabinofuranosylcytosine]	49 s⁻¹
CC(OC(=O)Nc1ccn([C@@H]2O[C@H](CO)[C@@H](O)C2(F)F)c(=O)n1)c1ccc([N+](=O)[O-])s1 (stereo partly shown) [Example 3, N^4-(1-(5-nitrothien-2-yl)ethyl)oxycarbonyl-2′,2′-difluoro-2′-deoxycytidine]	102 s⁻¹
CC(=O)OC[C@H]1O[C@@H](n2ccc(NC(=O)OC(C)c3ccc([N+](=O)[O-])s3)nc2=O)[C@@H](OC(C)=O)[C@@H]1OC(C)=O (stereo partly drawn) [Example 4, Tri-O-acetyl-N^4-(1-(5-nitrothien-2-yl)ethyl)oxycarbonyl-1-β-D-arabinofuranosylcytosine]	245 s⁻¹
O=C(Nc1ccn([C@@H]2O[C@H](CO)[C@@H](O)[C@@H]2O)c(=O)n1)OCc1ccc([N+](=O)[O-])cc1 [N^4-(4-nitrophenyl)methoxycarbonyl-1-β-D-arabinofuranosylcytosine, reference compound]	too small to measure
O=C(Nc1ccn([C@@H]2O[C@H](CO)[C@@H](O)C2(F)F)c(=O)n1)OCc1ccc([N+](=O)[O-])s1 [Example 6, N^4-(5-nitrothien-2-yl)methoxycarbonyl-2′,2′-difluoro-2′-deoxycytidine]	20 s⁻¹
O=C(Nc1ccn([C@@H]2O[C@H](CO)[C@@H](O)[C@@H]2O)c(=O)n1)OCc1ccc([N+](=O)[O-])s1 [Example 2, N^4-(5-nitrothien-2-yl)methoxycarbonyl-1-β-D-arabinofuranosylcytosine]	12 s⁻¹

Experiment: not given
Conditions: not given

SMILES	melting point [°C]
O=C(Nc1ccn([C@@H]2O[C@H](CO)[C@@H](O)C2(F)F)c(=O)n1)OCc1ccc([N+](=O)[O-])s1 [Example 6, N^4-(5-nitrothien-2-yl)methoxycarbonyl-2′,2′-difluoro-2′-deoxycytidine]	144 to 148
